Assays:
N. fowleri trophozoites = test: JC-1 mitochondrial membrane potential assay; assay type: cell-based, Naegleria fowleri; details: at IC90, 48 h
Experimental: To determine whether the apoptotic death of N. fowleri induced by compounds 2a, 3b and 3d is associated with mitochondrial dysfunction, the mitochondrial membrane potential (ΔΨm) was assessed using a JC-1 assay. The potential difference across the membrane in functioning mitochondria leads to the accumulation of cationic lipophilic fluorescent JC-1 molecules, forming red fluorescence (J-aggregate). Mitochondrial dysfunction results in the loss of mitochondrial membrane potential, leading to the transition from J-aggregates to monomers (green fluorescence). […] The absence of green and strong red fluorescence in untreated amoebae indicates healthy, functional mitochondria maintaining their ΔΨm. The shift to predominantly green fluorescence upon treatment with miltefosine, as well as compounds 2a, 3b and 3d, signifies a loss of ΔΨm, a critical early event in the intrinsic apoptotic pathway (Figure 7). Disruption of ΔΨm leads to the release of pro-apoptotic factors from the mitochondria, triggering the caspase cascade and, ultimately cell death. This observation aligns with the previous finding of DNA fragmentation and membrane compromise, further solidifying the apoptotic mechanism of these compounds.
Figure 7 Disruption of mitochondrial functions in N. fowleri. Mitochondrial membrane potential changes. Aggregate form (RFP channel, Ex/Em = 550/650 nm), implying healthy mitochondria, was found in N. fowleri trophozoites treated with 0.1% DMSO (NC), while monomer (GFP channel, Ex/Em = 490/525 nm) indicating the collapse of mitochondrial membrane potential was increased in treated amoebae. Miltefosine (MF) was included as a positive control drug. Images were representatives of the cell population in three individual experiments. Size bar: 10 µm.
The electrochemical gradient changes across the mitochondrial membrane in N. fowleri upon treatment of compounds 2a, 3b and 3d were measured using the JC-1 Mitochondrial Membrane Potential Assay Kit (Abcam, Cambridge, UK). The amoeba trophozoites (5 × 10^4 cells/well) were seeded in a 96-well black/clear bottom plate and incubated with compounds 2a, 3b or 3d (IC90) at 37 °C for 48 h. The JC-1 assay was conducted as described previously. The amoebae treated with Nelson’s medium containing 0.1% DMSO and miltefosine (IC90) were used as negative and positive controls, respectively.

C6 glial cells = test: Cytotoxicity assay for C6 cells (CellTiter-Blue); assay type: cell-based; details: C6 rat glial cells, viability; mean ± SD
Experimental: A viability assay was performed to evaluate the inhibitory activity of the tested compounds by determining their IC50 values against N. fowleri, using miltefosine as a reference drug. To assess the selectivity of the tested compounds relative to miltefosine, cytotoxic values that reduced the viability of C6 glial cells by 50% were established.
N. fowleri Carter NF69 strain (ATCC 30215; American Type Culture Collection, Manassas, VA, USA) was used. Amoeba trophozoites were cultured and maintained in Nelson’s medium containing 5% foetal bovine serum (FBS; Gibco, Grand Island, NY, USA) and 1% penicillin/streptomycin (P/S; Gibco, Grand Island, NY, USA) at 37 °C [56]. C6 rat glial cells (C6 cells; ATCC CCL-107) were cultured in Dulbecco’s Modified Eagle’s Medium (DMEM; Gibco, Grand Island, NY, USA) supplemented with 10% FBS (Gibco, Grand Island, NY, USA) and 1% P/S (Gibco, Grand Island, NY, USA) at 37 °C in a humidified incubator under 5% CO2 atmosphere.
The potential cytotoxicity of tested compounds and miltefosine in C6 cells was analysed. The cells were seeded in a 96-well microplate (Thermo Fisher Scientific; 2 × 10^4 cells/well), respectively, and incubated overnight until 80% confluent. Serially diluted tested compounds and miltefosine were treated to the cells as described above. Morphological changes of the cells were observed by microscopic examination. Cell viability was determined using the CellTiter-Blue® Cell viability assay (Promega, […], USA). The cytotoxic concentrations 50 (CC50) of tested compounds and miltefosine were calculated using GraphPad Prism 9.1.0 software (GraphPad Software, San Diego, CA, USA). The […] (SI) was determined by the ratio between CC50 and IC50. Cells treated with 0.1% DMSO, which was confirmed not to alter the morphology of the cells by microscopic examination, were used as controls with 100% cell viability.

SMILES	mitochondrial membrane potential (ΔΨm), JC-1 (N. fowleri trophozoites)	CC50 (C6 glial cells) [µM]
CCCCCCCCCCCCCO[C@@H]1CCC[C@H]1COP(=O)([O-])OCC[N+](C)(C)C [Compound 2a]	loss of ΔΨm	
CCCCCCCCCCCCCOC[C@@H]1CCC[C@H]1OP(=O)([O-])OCC[N+](C)(C)C [Compound 3b]	loss of ΔΨm	
CCCCCCCCCCCCCCCCCCCCCCOC[C@@H]1CCC[C@H]1OP(=O)([O-])OCC[N+](C)(C)C [Compound 3d]	loss of ΔΨm	
CCCCCCCCCCCCCCCCOP(=O)([O-])OCC[N+](C)(C)C [Miltefosine]	loss of ΔΨm	158.9 ± 1.49
